Measured values as given in patent US20060089375A1, “Pyrazolo[3,4-b] pyridine compounds, and their use as phosphodiesterase inhibitors” (priority 2002, published 2006).

System: pica feeding response
Assay: In Vivo Assay 2: Rat Pica Model of Emesis
Conditions: oral, rats, dosed orally, upper end given as greater than or equal to about 40 mg/kg
Text: However, a side effect of some PDE4 inhibitors in many species is emesis. Because many rat models of inflammation are well characterized, they have been used in procedures (see e.g. In Vivo Assay 1 above) to show beneficial anti-inflammatory effects of PDE 4 inhibitors. However rats have no emetic response (they have no vomit reflex), so that the relationship between beneficial anti-inflammatory effects of PDE 4 inhibitors and emesis is difficult to study directly in rats.
Pica feeding is a behavioural response to illness in rats wherein rats eat non-nutritive substances such as earth or in particular clay (e.g. kaolin) which may help to absorb toxins. Pica feeding can be induced by motion and chemicals (especially chemicals which are emetic in humans), and can be inhibited pharmacologically with drugs that inhibit emesis in humans. The Rat Pica Model, In Vivo Assay 2, can determine the level of pica response of rats to PDE 4 inhibition at pharmacologically relevant doses in parallel to in vivo anti-inflammatory Assays in (a separate set of) rats (e.g. In Vivo Assay 1 above). […] The Rat TI can for example be calculated as the ratio of a) the potentially-emetic Pica Response ED50 dose from Assay 2 to b) the rat anti-inflammatory ED50 dose (e.g. measured by rat neutrophilia-inhibition in eg In Vivo Assay 1), with larger TI ratios possibly indicating lower emesis at many anti-inflammatory doses. […]
At the end of 72 hours the rats are placed in clean cages and the food cups weighed. […] The food and clay cups and cage debris are weighed the following day and the total clay and food consumed that night by each individual animal is calculated.
A dose response is calculated by first converting the data into quantal response, where animals are either positive or negative for the pica response. A rat is “pica positive” if it consumes greater than or equal to 0.3 grams of clay […] using logistic regression performed by the Statistica software statistical package. A Pica Response ED50 value in mg per kg of body weight can then be calculated.

CCn1ncc2c(NC3CCOCC3)c(C(=O)Nc3ccc(F)cc3)cnc21 [Example 22, 1-Ethyl-N-(4-fluorophenyl)-4-(tetrahydro-2H-pyran-4-ylamino)-1H-pryazolo[3,4-b]pyridine-5-carboxamide]
ED50: 4.8 to 40 mg/kg

CCNC(=O)c1cnc2c(cnn2CC)c1NC1CCOCC1 [Example 83, 1-Ethyl-N-ethyl-4-(tetrahydro-2H-pyran-4-ylamino)-1H-pyrazolo[3,4-b]pyridine-5-carboxamide]
ED50: 4.8 to 40 mg/kg

CCn1ncc2c(NC3CCOCC3)c(C(=O)NCc3ccc(C(F)(F)F)cc3)cnc21 [Example 155, 1-Ethyl-4-(tetrahydro-2H-pyran-4-ylamino)-N-[4-(trifluoromethyl)benzyl]-1H-pyrazolo[3,4-b]pyridine-5-carboxamide]
ED50: 4.8 to 40 mg/kg
